Several values for one entry are separate records, joined by “and”; a condition that tells them apart may be missing. Equal values may be shown once. Toxic doses and inconclusive results are not listed. Non-standard residues stand in square brackets, D forms with d. Residues, ends and D or L forms follow the SMILES beside them. ξ: configuration not given here. *: point of attachment. ξF = NC(Cc1ccccc1)C(=O)O; Cbz = O=C(OCc1ccccc1)*; OBn = c1ccc(CO*)cc1
System: CD2F1 mice, L1210 leukemia ip, survival T/C
Assay: NCI In Vivo Anticancer Drug Screen. Data for tumor model L1210 Leukemia (intraperitoneal) in CD2F1 (CDF1) mice
Settings: higher = longer survival
How it was run: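 Tumor-bearing mice (transplanted tumor) were split into treated and vehicle control groups, and the measured endpoint of each treated group was divided by that of its vehicle controls.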

[1] = endpoint: mean survival time, dose: 100.0 mg/kg/injection, schedule: Q04DX003 (ip), vehicle: saline
[2] = endpoint: mean survival time, dose: 200.0 mg/kg/injection, schedule: Q04DX003 (ip), vehicle: saline

C/C(CCc1ccccc1)=N/O
T/C (endpoint: mean survival time, dose: 100.0 mg/kg/injection, schedule: Q01DX009 (ip), vehicle: other): 100 % of control
T/C (endpoint: mean survival time, dose: 200.0 mg/kg/injection, schedule: Q01DX009 (ip), vehicle: other): 103 % of control
T/C (endpoint: mean survival time, dose: 400.0 mg/kg/injection, schedule: Q01DX009 (ip), vehicle: other): 101 % of control

O=c1nc2c(ncn2C2OC(CO)C(O)C2O)c(NCCc2ccccc2)[nH]1 (stereo not given)
T/C (endpoint: mean survival time, dose: 12.5 mg/kg/injection, schedule: Q01DX005 (ip), vehicle: water): 93 % of control
T/C (endpoint: mean survival time, dose: 25.0 mg/kg/injection, schedule: Q01DX005 (ip), vehicle: water): 98 % of control
T/C (endpoint: mean survival time, dose: 50.0 mg/kg/injection, schedule: Q01DX005 (ip), vehicle: water): 96 % of control
T/C (endpoint: mean survival time, dose: 100.0 mg/kg/injection, schedule: Q01DX005 (ip), vehicle: water): 112 % of control

O=C1C2C3CCC(C3)C2C(=O)C2C3CCC(C3)C12 (stereo not given)
T/C (endpoint: mean survival time, dose: 100.0 mg/kg/injection, schedule: Q04DX003 (ip), vehicle: other): 93 % of control
T/C (endpoint: mean survival time, dose: 200.0 mg/kg/injection, schedule: Q04DX003 (ip), vehicle: other): 89 % of control
T/C (endpoint: mean survival time, dose: 400.0 mg/kg/injection, schedule: Q04DX003 (ip), vehicle: other): 93 % of control

COc1cc(-c2ccc(N=Nc3c(O)ccc4ccccc34)c(OC)c2)ccc1N=Nc1ccc2c(S(=O)(=O)O)cc(S(=O)(=O)O)c(N)c2c1O
T/C (endpoint: mean survival time, dose: 50.0 mg/kg/injection, schedule: Q01DX001 (ip), vehicle: saline): 91 % of control
T/C (endpoint: mean survival time, dose: 100.0 mg/kg/injection, schedule: Q01DX001 (ip), vehicle: saline): 94 % of control
T/C [1]: 94 % of control
T/C (endpoint: mean survival time, dose: 200.0 mg/kg/injection, schedule: Q01DX001 (ip), vehicle: saline): 88 % of control
T/C [2]: 95 % of control
T/C (endpoint: mean survival time, dose: 400.0 mg/kg/injection, schedule: Q01DX001 (ip), vehicle: saline): 94 % of control

Cc1ccc(Sc2ncnc3c2ncn3C2OC(CO)C(O)C2O)cc1 (stereo not given)
T/C (endpoint: mean survival time, dose: 12.5 mg/kg/injection, schedule: Q01DX005 (ip), vehicle: distilled water + Tween-80): 96 % of control
T/C (endpoint: mean survival time, dose: 25.0 mg/kg/injection, schedule: Q01DX005 (ip), vehicle: distilled water + Tween-80): 90 % of control
T/C (endpoint: mean survival time, dose: 50.0 mg/kg/injection, schedule: Q01DX005 (ip), vehicle: distilled water + Tween-80): 94 % of control
T/C (endpoint: mean survival time, dose: 100.0 mg/kg/injection, schedule: Q01DX005 (ip), vehicle: distilled water + Tween-80): 90 % of control
T/C (endpoint: mean survival time, dose: 200.0 mg/kg/injection, schedule: Q01DX005 (ip), vehicle: distilled water + Tween-80): 94 % of control

CCNC(=O)c1ccccc1N=NN(C)C
T/C (endpoint: mean survival time, dose: 18.7 mg/kg/injection, schedule: Q01DX009 (ip), vehicle: Klucel (hydroxypropylcellulose) (HPC)): 105 % of control
T/C (endpoint: mean survival time, dose: 18.75 mg/kg/injection, schedule: Q01DX009 (ip), vehicle: Klucel (hydroxypropylcellulose) (HPC)): 92 % of control and 97 % of control

CN1CCC(CNC(=O)CCCCCCCCC(=O)NCC2(c3ccccc3)CCN(C)CC2)(c2ccccc2)CC1
T/C (endpoint: mean survival time, dose: 1.25 mg/kg/injection, schedule: Q04DX003 (ip), vehicle: saline with Tween-80): 95 % of control
T/C (endpoint: mean survival time, dose: 2.5 mg/kg/injection, schedule: Q04DX003 (ip), vehicle: saline with Tween-80): 94 % of control

CCOC(=O)/C(C#N)=N/O
T/C (endpoint: mean survival time, dose: 75.0 mg/kg/injection, schedule: Q01DX001 (ip), vehicle: saline): 100 % of control

O=C(CNC(=O)OCc1ccccc1)NCC(=O)NC(Cc1ccccc1)C(=O)OCc1ccccc1 (stereo not drawn) (Cbz-Gly-Gly-[ξF]-OBn)
T/C (endpoint: mean survival time, dose: 100.0 mg/kg/injection, schedule: Q04DX003 (ip), vehicle: saline with Tween-80): 97 % of control
T/C (endpoint: mean survival time, dose: 200.0 mg/kg/injection, schedule: Q04DX003 (ip), vehicle: saline with Tween-80): 103 % of control
T/C (endpoint: mean survival time, dose: 400.0 mg/kg/injection, schedule: Q04DX003 (ip), vehicle: saline with Tween-80): 99 % of control

CC(C)(C)C(=O)C(Br)S(=O)(=O)C(Br)(Br)C(=O)C(C)(C)C (stereo not given)
T/C (endpoint: mean survival time, dose: 100.0 mg/kg/injection, schedule: Q01DX009 (ip), vehicle: saline with Tween-80): 95 % of control
T/C (endpoint: mean survival time, dose: 200.0 mg/kg/injection, schedule: Q01DX009 (ip), vehicle: saline with Tween-80): 97 % of control
T/C (endpoint: mean survival time, dose: 400.0 mg/kg/injection, schedule: Q01DX009 (ip), vehicle: saline with Tween-80): 95 % of control

O=C(OCCOCCOC(=O)N1CCOCC1)N1CCOCC1
T/C [1]: 100 % of control
T/C [2]: 102 % of control
T/C (endpoint: mean survival time, dose: 400.0 mg/kg/injection, schedule: Q04DX003 (ip), vehicle: saline): 96 % of control

CC(C)(C[NH-])C[NH-].[Cl][Pt+2][Cl]
T/C (endpoint: median survival time, dose: 0.2 mg/kg/injection, schedule: Q04DX003 (ip), vehicle: water): 118 % of control and 110 % of control and 111 % of control

CS(=O)(=O)CS(=O)(=O)OCCF
T/C (endpoint: median survival time, dose: 3.12 mg/kg/injection, schedule: Q01DX009 (ip), vehicle: saline): 112 % of control
T/C (endpoint: median survival time, dose: 3.13 mg/kg/injection, schedule: Q01DX009 (ip), vehicle: saline): 119 % of control
T/C (endpoint: median survival time, dose: 12.5 mg/kg/injection, schedule: Q01DX009 (ip), vehicle: saline): 179 % of control and 189 % of control
T/C (endpoint: median survival time, dose: 25.0 mg/kg/injection, schedule: Q01DX009 (ip), vehicle: saline): 182 % of control and 349 % of control
